US4385057A, “Diphenylbutyl-piperazinecarboxamides in pharmaceutical compositions and methods” (priority 1978, dated 1983)
Where two headings read alike, the source gives them in different places.

What was measured:
[1] = tested on: exploratory activity / climbing of mice; experiment: Climbing (inability to ascend net-ladder); format: in vivo, mouse (NMRI female); details: Mus musculus, sc, read-out: ED50, mg/kg, s.c. (dose rendering 50% of the mice incapable of entering the top of the net-ladder)
Method: When mice are placed in a new area, they explore the whole available territory. Minor and major tranquillizers inhibit the exploratory activity. The sedative effect of drugs is evaluated by the inability of mice to ascend a netladder. The process of climbing is very complex and consists of psychical and taxic (motor performance) components. For the experiments a transparent cage (36×27×23 cm) and a net-ladder (35×6 cm) standing with an inclination of 45° was used. (P. Kneip. Arch. Int. Pharmacodyn. 76, 238 (1960); F. Sandberg, Arzneimittelforsch. 4, 203 (1959)).
The test compound is administered s.c. (10 ml/kg) to 6 NMRI female mice per dose. The mice are marked with a number code from 1 to 6, in order to recognize each individual mouse. In 25 minutes, 55 minutes, 1 h 55 minutes and 3 h 55 minutes time after the administration the mice are placed in the above-mentioned cage for 10 minutes. The number of mice ascending the top of the net-ladder is noted. Other behavioural items are also noted. The ED50 (mg/kg) reported is the dose rendering 50% of the mice incapable of entering the top of the net-ladder 0.5 h after the administration.

[2] = tested on: mouse-killing behaviour of rats; experiment: Spontaneous mouse-killing (muricide) by rats; format: in vivo, rat (male hooded Long-Evans); details: Rattus norvegicus, sc
From the text: For the purpose of detecting new psychotropic substances with antiaggressive properties, pharmacologist have used several different models. […] This form of aggressive behaviour which is considered to be of predatory nature, is physiologically and topographically different from other forms of aggression (M. O'Boyle, Psychol. Bull. 81, 261 (1974)). Mousekilling is a spontaneous behaviour in some rat strains e.g. male hooded Long-Evans rats. Male hooded Long-Evans rats placed in individual cages were used. By testing a number of rats, a colony of rats was obtained that killed a mouse whenever introduced into the rats' cage, by biting the mouse through the cervical spinal cord. Each rat was tested for mouse-killing behaviour (killing a mouse within 5 minutes) prior to each experiment, thus serving as its own positive control. For each dose level 6 positive rats were selected and the test substance was administered by subcutaneous injection. Doses were selected to form a dose-response curve and the mean effective dose (ED50, mg/kg) was calculated by means of linear regression. The rats were tested at 1, and 2 hours after being injected subcutaneously.

[3] = tested on: isolation-induced aggressive behaviour of male mice; experiment: Isolation-induced aggressive behaviour; format: in vivo, mouse (male NMR mice); details: Mus musculus, sc, read-out: ED50, mg/kg, sc (dose inhibiting aggressive behaviour among 50 percent of the pairs)
From the text: Male mice subjected to prolonged isolation develop aggressive behavior against each other when paired. […] The clinical correlation of this test indicates tranquillizing and anxiolytic activities as well as antiaggressive properties as such (R. L. Duncan et al., J. Med. Chem. 13, 1 (1970)).
This type of aggression is interesting because it is known that this kind of emotional behaviour might be located in limbic structures in the brain (P. D. Mac Lean, Psychosom. Med. 11, 338 (1949)).
Every week 24 male NMR mice, weighing 20-22 g, were isolated in Makrolon cages for three weeks with diet and water ad libitum. A piece of cardboard was placed between the cages to prevent visual contact.
To test aggressiveness the mice were paired in a neutral area, a beaker (14 cm high and diameter 14 cm). A pair is considered aggressive if both the animals show clear signs of fighting within 5 min. This fighting is characterized by biting and vocalization. As soon as fighting is seen, the mice are separated and brought to their home cage. […] Animals showing no aggression are discarded. […] The test substance is administered s.c. (0.2-0.4 ml/20 g). The mice are paired 1/2 h, 1 h, 2 h, 4 h, 6 h and 24 h after the injection for trials of 5 min. duration.
The ED50 -value (mg/kg) reported is the dose inhibiting aggressive behaviour among 50 percent of the pairs 1.0 hour after drug administration.

[4] = tested on: acetic acid induced writhing; experiment: Writhing test (analgetic properties); format: in vivo, mouse (NMRI female); details: Mus musculus, sc, 20 min before acetic acid i.p.; read-out: ED50, mg/kg, s.c. (dose blocking the writhing behaviour in 50% of the animals)
Method: The writhing test is a frequently used test of analgetic properties (L. B. Witkin et al., J. Pharmacol. Exp. Ther. 133, 400 (1961)). If acetic acid (0.5%, 15 ml/kg) is injected intraperitoneally in mice (NMRI) they will without exception develop a writhing behaviour characterized by stretching their hind legs. The drugs to be tested were administered subcutaneously to 6 female mice at each dose 20 min. before the injection of the acetic acid. After 10 min. the behaviour of the mice was studied in 5 min. The ED50 value is the dose blocking the writhing behaviour in 50% of the animals during the 5 min. study period. [drawing 13]

pigs = experiment: Social parameters and aggression of pigs in stress situations; format: in vivo, pig; details: in words; for stabilization of social parameters: aggression, hierarchy, interaction, cleanliness, feeding behaviour; for effect on aggression: stress situations
From the text: Among domestic animals pigs are exposed to a wide variety of stresses, e.g. after weaning, at transports and at regrouping of animals. By studying social parameters such as aggression, hierarchy, interaction, cleanliness in their living space and feeding behaviour in different stress situations the new compounds of formula I have been compared with established drugs, e.g. azaperone and acepromazine, now used in handling pigs.

[5] = tested on: guinea pig papillary muscle; details: cited from earlier work
central 5HT receptors = details: established antidepressant drugs; in words; cited from earlier work
gastric ulcers in rats = experiment: Stress-induced ulcers (restraint and cold); format: in vivo, rat (female Sprague Dawley); details: 15 min before cold and restraint
From the text: A number of methods have been described for studies of somatic expression of adverse stimulation in experimental animals. One method is based upon the development of gastric lesions in rat subjected to some form of environmental stress. The most frequently used mode of stressing the rats is by simple physical restraint. In the experiments to be described rats were immobilized in rigid plastic devices. As repeatedly shown the restraint and the exposure to cold, act synergistically to produce gastric ulcers. The method for production of stress ulcus in rats has been described earlier (R. J. Levine In: C. J. Pfeiffer ed., Peptic Ulcer, Scand. Univ. Books, Copenhagen 1971). The animals in the experiments, female Sprague Dawley rats 180-230 g, have been kept immobilized for three hours at +5° C. For 24 hours prior to restraint the animals furthermore were not allowed to ingest anything but tap water. In all experiments the rats were divided in three groups. In the first group all animals were pre-treated only with saline 15 min. before the exposure to the stressors. […] The third group consisted always of the compound to be tested in this model. The number and severity of gastric erosions in the opened stomach of controls and drug-pre-treated animals were scored. The average number of gastric ulcers in the control rats were put equal to a hundred percent. In table VI the potency of some compounds to protect against gastric ulcers in the described experiments is reported. All pre-treatments were always made 15 min. before the exposure to cold and restraint.

thymus = experiment: Swim-test (stress-induced thymolymphatic involution); format: in vivo, mouse (NMRI female); details: for protecting capacity against the induced stress: in words; for Relative weight of thymus, ×100: once 10 min before first swim-test, saline stressed 36, unstressed 66, Wilcoxon's ranking test
From the text: If an animal is in a stage of exhaustion the rise in glucocorticoids induced by the stress causes thymolymphatic involution and elicites a characteristic change in blood count. […] In the experiments NMRI female mice were used with well-documented thymic glands. In the experiments the mice were divided in four groups. In the first group the mice were allowed to stay in their home cages all the time. In the second group saline-treated mice were repeatedly forced to swim in water at a temperature of +5° C. for 1 min. once every hour, 6 times per day for four days. In the third group the mice were pre-treated once with the test compound 10 min. before the first swim-test, otherwise the mice were manipulated in the same way as in the second group. In the fourth group the mice were adrenalectomized three days before the start of the swim tests. Otherwise also this group was manipulated as the second group. All mice were killed on the 5th day of the experiment and the weight of the thymic gland registered.

Geller conflict test = format: in vivo; details: s.c., ** (Student's t-test)
From the text: The Geller conflict test for anxiolytics clearly meets the requirements for a standard model and is most useful operant paradigm in screening for new drugs. (I. Geller and J. Seifler, Psychopharmacologia l, 482 (1960); B. Blackwell and W. E. Whitehead, In: A. Sudilovsky, S. Gershorn and B. Beer, eds. Predictability in Psychopharmacology: Preclinical and Clinical Correlations. Raven Press New York pp. 121, (1975)).

[6] = tested on: isolation-induced aggressive behaviour of male mice; details: background on clinically used drugs; in words; cited from earlier work
[7] = tested on: guinea pig papillary muscle; experiment: Prolongation of effective refractory period in guinea pig papillary muscle; details: 10^-7 M; pacing frequencies 1, 2 and 4 Hz
[8] = read-out: ED50, mg/kg, s.c., 2 hrs after injection
[9] = 1 hr after injection, read-out: ED50, mg/kg, s.c., 1 hr
[10] = 1.0 hour after drug administration

## CNC(=O)N1C[C@H](C)N(CCCC(c2ccc(F)cc2)c2ccc(F)cc2)C[C@H]1C (relative stereo) [III, trans-2,5-Dimethyl-N'-methyl-4-[4,4-(di-p-fluorophenyl)butyl]-1-piperazinecarboxamide]
[1]; 0.5 h after administration
  ED50: 1 mg/kg
[2]; [8]
  ED50: 2.9 mg/kg
[2]; [9]
  ED50: 1.9 mg/kg
[3]; [10]
  ED50: 2.6 mg/kg
[4]
  ED50: 1 mg/kg

## CC(=O)c1ccc2c(c1)N(CCCN(C)C)c1ccccc1S2 [Acepromazine]
pigs
  stabilization of social parameters: did not improve any social parameter
  effect on aggression: blocked aggression by an unspecific mechanism of sedation

## CCCCc1oc2ccccc2c1C(=O)c1cc(I)c(OCCN(CC)CC)c(I)c1 [Amiodarone]
[5]; 10^-5 M
  change of the effective refractory period: 35 ms

## CN(C)CCC=C1c2ccccc2CCc2ccccc21 [Amitriptyline, reference compound]
Central 5HT receptors
  blockade of central 5HT receptors: potent blockers
[2]; [8]
  ED50: 6.4 mg/kg
[2]; [9]
  ED50: > 10 mg/kg
[3]; [10]
  ED50: 5 mg/kg

## O=C(CCCN1CCN(c2ccccn2)CC1)c1ccc(F)cc1 [Azaperone]
pigs
  stabilization of social parameters: did not improve any social parameter
  effect on aggression: blocked aggression by an unspecific mechanism of sedation
Gastric ulcers in rats; pre-treatment dose 1.0 mg/kg
  Inhibition, % (gastric ulcers): 0%
thymus
  protecting capacity against the induced stress: less effective
thymus; pre-treatment dose 1.0 mg/kg
  Relative weight of thymus, ×100: 48

## CN(C)CCCN1c2ccccc2Sc2ccc(Cl)cc21 [Chlorpromazine, reference compound]
[1]; 0.5 h
  ED50: 2 mg/kg
[3]; 1 h
  ED50: 1.4 mg/kg

## CN1C(=O)CN=C(c2ccccc2)c2cc(Cl)ccc21 [Diazepam, reference compound]
Geller conflict test; dose 1.0 mg/kg
  Percent shocks compared to controls: 240%
[6]
  effect on isolation-induced aggressive behaviour: active

## O=C(CCCN1CCC(O)(c2ccc(Cl)cc2)CC1)c1ccc(F)cc1 [Haloperidol, reference compound]
[1]; 0.5 h
  ED50: 1.3 mg/kg

## CNC(=O)N1CCN(CCCC(c2ccc(F)cc2)c2ccc(F)cc2)CC1 [I, N'-Methyl-4-[4,4-(di-p-fluorophenyl)butyl]-1-piperazinecarboxamide]
[1]; 0.5 h after administration
  ED50: 1.5 mg/kg
[2]; [8]
  ED50: 0.7 mg/kg
[2]; [9]
  ED50: 0.5 mg/kg
[3]; [10]
  ED50: 4.8 mg/kg
[4]
  ED50: 0.5 mg/kg

## CCNC(=O)N1CCN(CCCC(c2ccc(F)cc2)c2ccc(F)cc2)CC1 [II, N'-Ethyl-4-[4,4-(di-p-fluorophenyl)butyl]-1-piperazinecarboxamide]
[7]
  prolongation of the effective refractory period: 30 ms
Geller conflict test; dose 0.5 mg/kg
  Percent shocks compared to controls: 250%
Gastric ulcers in rats; pre-treatment dose 1.0 mg/kg
  Inhibition, % (gastric ulcers): 43%
thymus
  protecting capacity against the induced stress: most protecting capacity
thymus; pre-treatment dose 1.0 mg/kg
  Relative weight of thymus, ×100: 50
[1]; 0.5 h after administration
  ED50: 0.7 mg/kg
[2]; [8]
  ED50: 1.9 mg/kg
[2]; [9]
  ED50: 0.4 mg/kg
[3]; [10]
  ED50: 1.3 mg/kg
[4]
  ED50: 0.7 mg/kg

## CNC(=S)N1CCN(CCCC(c2ccc(F)cc2)c2ccc(F)cc2)CC1 [IV, N'-Methyl-4-[4,4-(di-p-fluorophenyl)butyl]-1-piperazinecarbothioamide]
[1]; 0.5 h after administration
  ED50: 5.1 mg/kg
[2]; [8]
  ED50: 0.1 mg/kg
[2]; [9]
  ED50: 0.1 mg/kg
[3]; [10]
  ED50: 2 mg/kg
[4]
  ED50: 1.4 mg/kg

## CCN(CC)CC(=O)Nc1c(C)cccc1C [Lidocain]
[5]; 10^-7 M
  change of the effective refractory period: 20 ms

## CN1CCN2c3ccccc3Cc3ccccc3C2C1 (stereo not drawn) [Mianserin]
Central 5HT receptors
  blockade of central 5HT receptors: potent blockers

## CN1CC[C@]23c4c5ccc(O)c4O[C@H]2[C@@H](O)C=C[C@H]3[C@H]1C5 [Morphine]
Gastric ulcers in rats; pre-treatment dose 2.0 mg/kg
  Inhibition, % (gastric ulcers): 67%

## CC(C)NCC(O)COc1cccc2ccccc12 (stereo not drawn) [Propranolol]
thymus
  protecting capacity against the induced stress: less effective
thymus; pre-treatment dose 10.0 mg/kg
  Relative weight of thymus, ×100: 48

## C=C[C@H]1C[N@@]2CC[C@H]1C[C@@H]2[C@@H](O)c1ccnc2ccc(OC)cc12 [Quinidine]
[5]; 10^-6 M
  change of the effective refractory period: 14 ms
